Consider 23 compounds from US12187713B2, “Immunomodulators, compositions and methods thereof” (Betta Pharmaceuticals Co., Ltd, priority 2019, dated 2025).

The target of the first assay is PD-1/PD-L1 (Homo sapiens (Human), UniProt Q9NZQ7). The assay is described as follows: PD-1/PD-L1 Binding Assay (Alphascreen). As to conditions: numeric values. Put shortly: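 PD-1/PD-L1 binding detected by anti-6×His acceptor and streptavidin donor beads after 120 min in the dark at 25 °C. Beforehand, the two proteins were incubated 15 min at 25 °C with inhibitor at 0.015–300 nM (1% DMSO). IC50 comes from a log concentration–response curve.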
Chain of PD-1/PD-L1 (Q9NZQ7 19-238): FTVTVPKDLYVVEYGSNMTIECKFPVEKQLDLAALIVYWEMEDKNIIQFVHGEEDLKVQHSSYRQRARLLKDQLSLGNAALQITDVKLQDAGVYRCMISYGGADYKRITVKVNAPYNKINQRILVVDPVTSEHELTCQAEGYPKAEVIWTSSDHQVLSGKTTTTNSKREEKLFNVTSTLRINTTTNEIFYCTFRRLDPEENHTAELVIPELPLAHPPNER
Compound `Cc1c(Nc2nccc3cc(CN4CCC4)cnc23)cccc1-c1cccc(-c2nc3cc(CN4CCC[C@H]4C(=O)O)c(OC(F)F)cc3o2)c1C` [Example 177, ((2-(3′-((3-(azetidin-1-ylmethyl)-1,7-naphthyridin-8-yl)amino)-2,2′-dimethyl-[1,1′-biphenyl]-3-yl)-6-(difluoromethoxy)benzo[d]oxazol-5-yl)methyl)proline] came in with an IC50 of 0.94 nM.

On to `Cc1c(-c2nc3cc(CN4CC[C@@H]4CO)c(OC(F)F)cc3o2)cccc1-c1cccc(-c2nc3cc(CN4CCC[C@H]4C(=O)O)c(OC(F)F)cc3o2)c1C` [Example 35, ((6-(difluoromethoxy)-2-(3′-(6-(difluoromethoxy)-5-(((R)-2-(hydroxymethyl)azetidin-1-yl)methyl)benzo[d]oxazol-2-yl)-2,2′-dimethyl-[1,1′-biphenyl]-3-yl)benzo[d]oxazol-5-yl)methyl)-L-proline], for which the IC50 amounted to 0.91 nM.

As for `CCNCc1cc2nc(-c3cccc(-c4cccc(-c5nc6cc(CN7CCC[C@H]7C(=O)O)c(OC(F)F)cc6o5)c4C)c3C)oc2cc1OC(F)F` [Example 21, ((6-(difluoromethoxy)-2-(3′-(6-(difluoromethoxy)-5-((ethylamino)methyl)benzo[d]oxazol-2-yl)-2,2′-dimethyl-[1,1′-biphenyl]-3-yl)benzo[d]oxazol-5-yl)methyl)-L-proline], the half-inhibitory concentration (IC50) was 0.59 nM. This IC50 is about 1.5-fold lower than that of the compound before.

`Cc1c(-c2nc3cc(CN4CCCC4)c(F)cc3[nH]2)cccc1-c1cccc(-c2nc3cc(CN4CCC[C@H]4C(=O)O)c(OC(F)F)cc3o2)c1C` [Example 297] had an IC50 of 26 nM.

Compound `Cc1c(-c2ccc(CN(C)CCCN(C)C)cc2)cccc1-c1cccc(-c2nc3cc(CN4CCC[C@H]4C(=O)O)c(OC(F)F)cc3o2)c1C` [Example 226, ((6-(difluoromethoxy)-2-(4″-(((3-(dimethylamino)propyl)(methyl)amino)methyl)-2,2′-dimethyl-[1,1′:3′,1″-terphenyl]-3-yl)benzo[d]oxazol-5-yl)methyl)-L-proline] registered an IC50 of 4.7 nM.

In the case of `Cc1c(-c2nc3cc(CN4CCC[C@H]4C(=O)O)c(OC(F)F)cc3o2)cccc1-c1cccc(NC(=O)c2ccc(CNCCO)cn2)c1Cl` [Example 302, ((2-(2′-chloro-3′-(5-(((2-hydroxyethyl)amino)methyl)picolinamido)-2-methyl-[1,1′-biphenyl]-3-yl)-6-(difluoromethoxy)benzo[d]oxazol-5-yl)methyl)-L-proline], the IC50 came to 0.29 nM. This IC50 lies about 16-fold lower than the previous one.

Turning to `Cc1c(Nc2nccc3cc(CN4CC(O)C4)cnc23)cccc1-c1cccc(-c2nc3cc(CN4CCC[C@H]4C(=O)O)c(OC(F)F)cc3o2)c1C` [Example 178, ((6-(difluoromethoxy)-2-(3′-((3-((3-hydroxyazetidin-1-yl)methyl)-1,7-naphthyridin-8-yl)amino)-2,2′-dimethyl-[1,1′-biphenyl]-3-yl)benzo[d]oxazol-5-yl)methyl)proline], the IC50 was 3.9 nM. Against the preceding compound, the IC50 is about 13-fold higher.

`Cc1c(-c2nc3cc(CN4CC(C(C)(C)O)C4)c(OC(F)F)cc3o2)cccc1-c1cccc(-c2nc3cc(CN4CCC[C@H]4C(=O)O)c(OC(F)F)cc3o2)c1C` [Example 69, ((6-(difluoromethoxy)-2-(3′-(6-(difluoromethoxy)-5-((3-(2-hydroxypropan-2-yl)azetidin-1-yl)methyl)benzo[d]oxazol-2-yl)-2,2′-dimethyl-[1,1′-biphenyl]-3-yl)benzo[d]oxazol-5-yl)methyl)-L-proline]: the IC50 amounted to 0.49 nM. Against the preceding compound, the IC50 is about 8-fold lower.

As to `Cc1c(-c2ccc(CN3CCCC3)c(Cl)c2)cccc1-c1cccc(-c2nc3cc(CN4CCC[C@H]4C(=O)O)c(OC(F)F)cc3o2)c1C` [Example 229, ((2-(3″-chloro-2,2′-dimethyl-4″-(pyrrolidin-1-ylmethyl)-[1,1′:3′,1″-terphenyl]-3-yl)-6-(difluoromethoxy)benzo[d]oxazol-5-yl)methyl)-L-proline], the 50% inhibitory concentration (IC50) stood at 6.9 nM.

The same assay, now with this note: range symbols.
`Cc1c(-c2nc3cc(CN4CCC[C@H]4C(=O)O)c(OC(F)F)cc3o2)cccc1-c1cccc(-c2nc3cc(CN4CC5(CCC(=O)N5)C4)cc(C#N)c3o2)c1C` [Example 151, ((2-(3′-(7-cyano-5-((6-oxo-2,5-diazaspiro[3.4]octan-2-yl)methyl)benzo [d]oxazol-2-yl)-2,2′-dimethyl-[1,1′-biphenyl]-3-yl)-6-(difluoromethoxy)benzo[d]oxazol-5-yl)methyl)-L-proline] gave an IC50 of 0.1 to 5 nM.

`Cc1c(-c2ccc(CN3CCCC3)c(OCCc3ccc(F)cc3)c2)cccc1-c1cccc(-c2nc3cc(CN4CCC[C@H]4C(=O)O)c(OC(F)F)cc3o2)c1C` [Example 249, ((6-(difluoromethoxy)-2-(3″-(4-fluorophenethoxy)-2,2′-dimethyl-4″-(pyrrolidin-1-ylmethyl)-[1,1′:3′,1″-terphenyl]-3-yl)benzo[d]oxazol-5-yl)methyl)proline] gave an IC50 of 5 to 50 nM.

The compound `Cc1c(-c2nc3cc(CN4CCC45CCC5)ccc3o2)cccc1-c1cccc(-c2nc3cc(CN4CCC[C@H]4C(=O)O)c(OC(F)F)cc3o2)c1C` [Example 107, ((2-(3′-(5-((1-azaspiro[3.3]heptan-1-yl)methyl)benzo[d]oxazol-2-yl)-2,2′-dimethyl-[1,1′-biphenyl]-3-yl)-6-(difluoromethoxy)benzo[d]oxazol-5-yl)methyl)-L-proline] yielded an IC50 of 0.1 to 5 nM.

Turning to `Cc1c(-c2nc3cc(CN4CCC[C@H]4C(=O)O)c(OC(F)F)cc3o2)cccc1-c1cccc(-c2nc3cc(CN4CCC4(C)N)c(OC(F)F)cc3o2)c1C` (stereo partly drawn) [Example 40, ((2-(3′-(5-((2-amino-2-methylazetidin-1-yl)methyl)-6-(difluoromethoxy)benzo[d]oxazol-2-yl)-2,2′-dimethyl-[1,1′-biphenyl]-3-yl)-6-(difluoromethoxy)benzo[d]oxazol-5-yl)methyl)-L-proline], the IC50 lay within 0.1 to 5 nM.

The compound `Cc1c(-c2nc3cc(CN4CCC[C@H]4C(=O)O)c(OC(F)F)cc3o2)cccc1-c1cccc(-c2nc3cc(CNCC4CNC4)cc(C#N)c3o2)c1C` [Example 157] displayed an IC50 of 0.1 to 5 nM.

Compound `Cc1c(-c2cnc(CN3CCCC3)cn2)cccc1-c1cccc(-c2nc3cc(CN4CCC[C@H]4C(=O)O)c(OC(F)F)cc3o2)c1C` [Example 284, ((6-(difluoromethoxy)-2-(2,2′-dimethyl-3′-(5-(pyrrolidin-1-ylmethyl)pyrazin-2-yl)-[1,1′-biphenyl]-3-yl)benzo[d]oxazol-5-yl)methyl)-L-proline] came in with an IC50 of 5 to 50 nM.

On to `Cc1c(-c2nc3cc(CN4CCC[C@H]4C(=O)O)c(OC(F)F)cc3o2)cccc1-c1cccc(N2CCC(CN3CC(C)(C)C3)CC2)c1C` [Example 308, ((6-(difluoromethoxy)-2-(3′-(4-((3,3-dimethylazetidin-1-yl)methyl)piperidin-1-yl)-2,2′-dimethyl-[1,1′-biphenyl]-3-yl)benzo[d]oxazol-5-yl)methyl)-L-proline], for which the IC50 lay in the range of 0.1 to 5 nM.

In turn, `Cc1c(-c2ccc(CN3CCC(NC(N)=O)C3)c(F)c2)cccc1-c1cccc(-c2nc3cc(CN4CCC[C@H]4C(=O)O)c(OC(F)F)cc3o2)c1C` (stereo partly drawn) [Example 260, ((6-(difluoromethoxy)-2-(3″-fluoro-2,2′-dimethyl-4″-((3-ureidopyrrolidin-1-yl)methyl)-[1,1′:3′,1″-terphenyl]-3-yl)benzo[d]oxazol-5-yl)methyl)-L-proline] showed an IC50 of 5 to 50 nM.

Compound `Cc1c(-c2nc3cc(CN4CC5CCCC5C4)c(OC(F)F)cc3o2)cccc1-c1cccc(-c2nc3cc(CN4CCC[C@H]4C(=O)O)c(OC(F)F)cc3o2)c1C` (stereo partly drawn) [Example 49, ((6-(difluoromethoxy)-2-(3′-(6-(difluoromethoxy)-5-((hexahydrocyclopenta [c]pyrrol-2(1H)-yl)methyl)benzo[d]oxazol-2-yl)-2,2′-dimethyl-[1,1′-biphenyl]-3-yl)benzo[d]oxazol-5-yl)methyl)-L-proline] registered an IC50 of 0.1 to 5 nM.

Consider `Cc1c(-c2nc3cc(CN(C)[C@@H]4CCC[C@@H]4O)c(OC(F)F)cc3o2)cccc1-c1cccc(-c2nc3cc(CN4CCC[C@@H]4C(=O)O)c(OC(F)F)cc3o2)c1C` [Example 26, ((6-(difluoromethoxy)-2-(3′-(6-(difluoromethoxy)-5-((((1R,2S)-2-hydroxycyclopentyl) (methyl)amino)methyl)benzo[d]oxazol-2-yl)-2,2′-dimethyl-[1,1′-biphenyl]-3-yl)benzo[d]oxazol-5-yl)methyl)-D-proline], for which the IC50 is 0.1 to 5 nM.

`CCCNCCCN(C)Cc1cc2nc(-c3cccc(-c4cccc(-c5nc6cc(CN7CCC[C@H]7C(=O)O)c(OC(F)F)cc6o5)c4C)c3C)oc2cc1OC(F)F` [Example 53, ((6-(difluoromethoxy)-2-(3′-(6-(difluoromethoxy)-5-((methyl(3-(propylamino)propyl)amino)methyl)benzo [d]oxazol-2-yl)-2,2′-dimethyl-[1,1′-biphenyl]-3-yl)benzo[d]oxazol-5-yl)methyl)-L-proline]: the IC50 lay within 0.1 to 5 nM.

Turning to `Cc1c(-c2ccc3c(c2)CN(C(C)C(=O)O)C3)cccc1-c1cccc(-c2nc3cc(CN4CCC[C@H]4C(=O)O)c(OC(F)F)cc3o2)c1C` (stereo partly drawn) [Example 292, ((2-(3′-(2-(1-carboxyethyl)isoindolin-5-yl)-2,2′-dimethyl-[1,1′-biphenyl]-3-yl)-6-(difluoromethoxy)benzo[d]oxazol-5-yl)methyl)-L-proline], the IC50 is 5 to 50 nM.

Compound `Cc1c(-c2ccc(CN3CC[C@@H](c4nnn[nH]4)C3)c(F)c2)cccc1-c1cccc(-c2nc3cc(CN4CCC[C@H]4C(=O)O)c(OC(F)F)cc3o2)c1C` [Example 251, ((2-(4″-(((R)-3-(1H-tetrazol-5-yl)pyrrolidin-1-yl)methyl)-3″-fluoro-2,2′-dimethyl-[1,1′:3′,1″- terphenyl]-3-yl)-6-(difluoromethoxy)benzo[d]oxazol-5-yl)methyl)proline] displayed a half-maximal inhibitory concentration (IC50) of 5 to 50 nM.

Compound `Cc1c(-c2nc3c(o2)CCN(CC(N)=O)C3)cccc1-c1cccc(-c2nc3cc(CN4CCC[C@H]4C(=O)O)c(OC(F)F)cc3o2)c1C` [Example 196, ((2-(3′-(5-(2-amino-2-oxoethyl)-4,5,6,7-tetrahydrooxazolo[4,5-c]pyridin-2-yl)-2,2′-dimethyl-[1,1′-biphenyl]-3-yl)-6-(difluoromethoxy)benzo[d]oxazol-5-yl)methyl)proline] showed an IC50 of 5 to 50 nM.
